Results reported in patent US20250346883A1, “DENSITY GRADIENT CHEMOSTAT FOR ADAPTED LABORATORY EVOLUTION” (priority 2022, published 2025).
Converted amounts (≈) assume the structure as drawn. “And” between values parts separate entries of the source, which are not always exact repeats. Equal entries are not always repeated.

How the values were obtained:
[1] = system: Escherichia coli MG1655 ancestor and MICALE-grown samples; test: Chaotropic stress adaptation analysis (OD600 growth in increasing MgCl2); format: cell-based
Method: (§1) The adaptation analysis (step 205) is a qualitative test to compare the ability to grow in the presence of the stressor between the ancestor and MICALE-grown samples. Turbid broth cultures from isolated colonies were diluted 1:100 in sterile broth with increasing amounts of stressor. These dilutions were vortexed before pipetting 0.2 mL in triplicate onto a 96-well plate. The microplate reader then measured OD600 every 15 minutes over the span of four days while incubating the plate at 37° C. with the plate lid on. […] Referring to FIG. 3B, for each OD600 curve, the maximum rate of growth over a span of 75 minutes is designated the exponential growth rate, u, and the subtracted difference between the maximum and minimum OD600 measurements, AOD, is designated the cell proliferation. The high salinity and chaotropic stress adaptation analyses were completed once whereas the antibiotic analysis was repeated for two total trials. Growth metrics were extrapolated from the growth curves (described below) for numerical comparisons between samples and to fit a logistic dose-response curve of each sample's response in a stressor. For each sample, a logistic curve was fit to the triplicate relative exponential growth rate or relative cell proliferation values across all media types (FIG. 3C). This curve represents a sample's relative response to increasing doses of a stressor, known as a dose-response curve. The value for ED50 is the effective dose of the stressor at which a 50% decrease in the maximal response (100%) is observed.
For the chaotropic stress run, samples from both two weeks and four weeks into the run were selected for analysis (Table 5, below). The samples, including the ancestor, were cultured in media with 0, 200, and 250 mM MgCl2. The IL samples were not plated on 200 mM MgCl2 plates due to limited resources. The ancestor was grown on plates with the same MgCl2 concentration as the samples to see if the culturing process was causing genetic change significant enough to affect the growth phenotypes observed during the adaptation analysis. Cultures were diluted into media with 0, 200, 250 and 300 mM MgCl2 then pipetted onto the 96-well-plate to start the four-day analysis.
(§2) To statistically compare growth between samples, two parameters were extracted from the OD600 curves resulting from the adaptation analysis: relative exponential growth rate and relative cell proliferation (FIG. 3B). To find the exponential growth rate, μ, growth curves are normally fit to a standard sigmoidal function, such as the Gompertz model. However, these OD600 curves were too irregular to be well fit with a standard function. Instead, a rolling regression was fitted onto natural log transformed OD600 curves to produce linear regression lines between six measurements at a time (75 total minutes), shifting by 1 measurement, over the curve. The exponential growth rate from the maximum slope obtained by the rolling regression is 0.44 hr^−1. The darker lines on the upper right section of the curve represent where the maximum slope occurs. (FIG. 4).
(§3) The exponential growth rate was determined to be the maximum slope of any of the regression lines, denoted by μstress for growth curves in media with stressor and μblank for that in blank LB media [Equation 1]. Any slope maxima that appeared to be due from anomalies in the data, such as a quick jump in OD600 after biofilm formation, were filtered out. This ensured that the maximum slope occurred during the time that visually represented exponential growth (near the start of the curve). The triplicate μblank calculations were averaged to obtain the values representing that sample's growth in media without stress, μcontrol [Equation 2]. The percent relative exponential growth rate was obtained by dividing each μ by the μcontrol, then multiplying by 100 [Equation 3]. Finally, the three relative exponential growth rate values for each sample and media type were averaged [Equation 4]. […]

[2] = system: Escherichia coli MG1655 ancestor and MICALE-grown samples; test: High salinity adaptation analysis (OD600 growth in increasing NaCl); format: cell-based
Method: as §1
The samples chosen from the high salinity run were frozen stocks of the PL, SL, and BL samples that had been taken at the end of the run (two weeks) and one SL sample from the first 25 hours (Table 2, below). The samples used in the adaptation analysis had been in media with a NaCl concentration of 60 ppt, and the ancestor was cultured on blank LB media. The samples were diluted into LB media with 5, 45, 60, 75, and 90 ppt NaCl then plated on the 96-well plate.
as §2, §3

[3] = system: Escherichia coli MG1655 ancestor and MICALE-grown samples; test: Antibiotic stress adaptation analysis (OD600 growth in increasing ciprofloxacin); format: cell-based; conditions: for relative cell proliferation / relative exponential growth rate: 10×MIC
Method: as §1
The samples chosen for the antibiotic-stress adaptation analysis were from the end of the antibiotic stress MICALE run, sampled on the 14th day (Table 7, below). Samples were cultured grown in media with no antibiotic, 0.6 μg/mL ciprofloxacin (10×MIC,) and 15 μg/mL ciprofloxacin ([…]) were transferred into 5 mL of LB broth with the same amount of antibiotic. The only exception is the BL sample was grown in 0.6 μg/mL ciprofloxacin then transferred to LB broth with 15 μg/mL ciprofloxacin. Once turbid, the broth cultures were diluted into media with no antibiotic, 0.6 μg/mL, 6 μg/mL, and 60 μg/mL ciprofloxacin then pipetted onto a 96-well plate and placed in the microplate reader to start the analysis. A portion of the broth cultures used for the analysis were frozen in glycerol. For a repeat trial of the adaptation analysis, these frozen stocks were revived in broth media matching the level of antibiotic in which they had originally been cultured.
as §2
The exponential growth rate was determined to be the maximum slope of any of the regression lines, denoted by μstress for growth curves in media with stressor and μblank for that in blank LB media [Equation 1]. Any slope maxima that appeared to be due from anomalies in the data, such as a quick jump in OD600 after biofilm formation, were filtered out. This ensured that the maximum slope occurred during the time that visually represented exponential growth (near the start of the curve). […]

Escherichia coli = conditions: cited from earlier work
[4] = sample PL-000-Col1, 200 mM MgCl2

[Cl-].[Cl-].[Mg+2] [MgCl2, magnesium chloride]
growth in 300 mM MgCl2 ([1]; all samples incl. ancestor, 300 mM MgCl2): No samples showed signs of growth
average exponential growth rate (relative) ([1]; sample Anc-000, 200 mM MgCl2): 41.7%
relative cell proliferation ([1]; sample Anc-000, 200 mM MgCl2): 74.0%
growth in 250 mM MgCl2 ([1]; sample Anc-000, 250 mM MgCl2): showed signs of growth
average exponential growth rate (relative) ([1]; sample Anc-200, 200 mM MgCl2): 32.0%
relative cell proliferation ([1]; sample Anc-200, 200 mM MgCl2): 94.0%
average exponential growth rate (relative) ([1]; sample IL-000, 200 mM MgCl2): 33.5%
relative cell proliferation ([1]; sample IL-000, 200 mM MgCl2): 86.5%
maximum OD600 ([1]; sample PL-000-Col1, one triplicate well, 200 mM MgCl2): 1.479
average exponential growth rate (relative) [1, 4]: 54.0%
relative cell proliferation [1, 4]: 130% and 130.3%
growth in 250 mM MgCl2 ([1]; sample PL-000-Col1, 250 mM MgCl2 (one well)): showed signs of growth
relative cell proliferation ([1]; sample PL-000-Col2, 200 mM MgCl2 (considered as no growth)): less than 5%
growth in media with MgCl2 ([1]; sample PL-000-Col2, any media with MgCl2): could not grow
average exponential growth rate (relative) ([1]; sample PL-200, 200 mM MgCl2): 26.5%
relative cell proliferation ([1]; sample PL-200, 200 mM MgCl2): 129.3%
average exponential growth rate (relative) ([1]; sample SL-W2, 200 mM MgCl2): 22.2%
highest average OD600 ([1]; sample SL-W2, 200 mM MgCl2): 1.399
relative cell proliferation ([1]; sample SL-W2, 200 mM MgCl2): 140.8%
average exponential growth rate (relative) ([1]; sample SL-W4, 200 mM MgCl2): 42.3%
relative cell proliferation ([1]; sample SL-W4, 200 mM MgCl2): 102.2%

[Cl-].[Na+] [NaCl, sodium chloride]
decrease of exponential growth rate from 60 to 75 ppt NaCl ([2]; sample Ancestor): 22.9%
relative growth rate ([2]; sample Ancestor, 75 ppt NaCl): 15.5%
average cell proliferation ([2]; sample Ancestor, 90 ppt NaCl (no growth)): less than 5%
increase of exponential growth rate from 60 to 75 ppt NaCl ([2]; sample BL): 7.7%
relative growth rate ([2]; sample BL, 60 ppt NaCl): 32.5%
relative growth rate ([2]; sample BL, 75 ppt NaCl): 40.2%
relative growth rate ([2]; sample BL, 90 ppt NaCl): 42.8%
decrease of exponential growth rate from 60 to 75 ppt NaCl ([2]; sample PL): 35.0%
relative growth rate ([2]; sample PL, 75 ppt NaCl): 18.3%
relative growth rate ([2]; sample PL, 90 ppt NaCl): 25.9%
decrease of exponential growth rate from 60 to 75 ppt NaCl ([2]; sample SLearly): 28.9%
average cell proliferation ([2]; sample SLearly, 75 and 90 ppt NaCl (no growth)): less than 5%
relative growth rate ([2]; sample SLearly, 75 ppt NaCl): 3.1%
decrease of exponential growth rate from 60 to 75 ppt NaCl ([2]; sample SLfinal): 7.8%
relative growth rate ([2]; sample SLfinal, 75 ppt NaCl): 19.7%
relative growth rate ([2]; sample SLfinal, 90 ppt NaCl): 27.0%
average cell proliferation ([2]; three samples taken at the end of the run (PL, SLfinal, BL), every level of salinity (5-90 ppt NaCl)): over 5%

O=C(O)c1cn(C2CC2)c2cc(N3CCNCC3)c(F)cc2c1=O [ciprofloxacin]
growth in media with ciprofloxacin ([3]; Ancestor, any media with ciprofloxacin (10-1000×MIC), both trials): did not show signs of growth
concentration at which cell proliferation value of less than 5% was reached (no growth) ([3]; Trial 1, Ancestor): 10 ×MIC
concentration at which cell proliferation value of less than 5% was reached (no growth) ([3]; Trial 1, sample BL-15): 1000 ×MIC
concentration at which cell proliferation value of less than 5% was reached (no growth) ([3]; Trial 1, sample IL-00): 100 ×MIC
average cell proliferation ([3]; Trial 1, sample IL-00, 100×MIC): 0.6%
average cell proliferation ([3]; Trial 1, sample IL-00, 1000×MIC (likely evaporation, not growth)): 5.3%
concentration at which cell proliferation value of less than 5% was reached (no growth) ([3]; Trial 1, sample IL-15-Col1): 1000 ×MIC
relative growth rate ([3]; Trial 1, sample IL-15-Col1, 100×MIC): 54.4%
concentration at which cell proliferation value of less than 5% was reached (no growth) ([3]; Trial 1, sample IL-15-Col2): 1000 ×MIC
relative cell proliferation ([3]; Trial 1, sample IL-15-Col2): 61.5%
relative exponential growth rate ([3]; Trial 1, sample IL-15-Col2): 107.5%
concentration at which cell proliferation value of less than 5% was reached (no growth) ([3]; Trial 1, sample PL-00): 10 ×MIC
concentration at which cell proliferation value of less than 5% was reached (no growth) ([3]; Trial 1, sample PL-0.6): 100 ×MIC
cell proliferation values ([3]; Trial 1, sample SL-15, all concentrations (10-1000×MIC)): over 5%
concentration at which average cell proliferation lower than 5% was reached ([3]; Trial 2, Anc): 10 ×MIC
relative exponential growth rate ([3]; Trial 2, sample BL-15): 97.2%
relative growth rate ([3]; Trial 2, sample BL-15, 100×MIC): 66.6%
concentration at which average cell proliferation lower than 5% was reached ([3]; Trial 2, sample IL-00): 100 ×MIC
relative exponential growth rate ([3]; Trial 2, sample IL-15-Col1): 90.5%
concentration at which average cell proliferation lower than 5% was reached ([3]; Trial 2, sample IL-15-Col2): 1000 ×MIC
relative cell proliferation ([3]; Trial 2, sample IL-15-Col2): 90.9%
relative exponential growth rate ([3]; Trial 2, sample IL-15-Col2): 101.6%
concentration at which average cell proliferation lower than 5% was reached ([3]; Trial 2, sample PL-00): 100 ×MIC
concentration at which average cell proliferation lower than 5% was reached ([3]; Trial 2, sample PL-0.6): 100 ×MIC
relative exponential growth rate ([3]; Trial 2, sample SL-15): 90.6%
average cell proliferation ([3]; Trial 2, samples IL-15-Col1, SL-15 and BL-15, 1000×MIC (growth in all levels tested)): above 5%
growth (OD600 curves) in ciprofloxacin ([3]; samples IL-15-Col1, IL-15-Col2, SL-15 and BL-15, both trials): had OD600 curves in ciprofloxacin up to 100×MIC
growth in 100 or 1,000×MIC ([3]; samples PL-00, PL-0.6 and IL-00, overall, both trials): could not grow
MIC, literature's value (Escherichia coli): 0.05 µg/mL (≈ 0.151 µM)
